Experimental findings from patent US10336762B2 (priority 2017, dated 2019) are described below.

The structures appear in SMILES notation.

One assay has as its system TNFα. Put plainly: cells. Conditions: Homo sapiens, Monocyte, LPS-stimulated human monocytes, TNFα content; read-out: EC50 TNF. The class given is cell-based, human.
The target in a further assay is IRAK4 enzyme (Homo sapiens (Human), UniProt Q9NWZ3). Put plainly: biochemical. The conditions noted are these: IRAK4 enzyme, TR-FRET (HTRF), 500 μM ATP. The class given is biochemical. (TR-FRET usually uses a lanthanide donor and a delayed reading to cut background.)
Sequence of IRAK4 enzyme (Q9NWZ3 whole entry): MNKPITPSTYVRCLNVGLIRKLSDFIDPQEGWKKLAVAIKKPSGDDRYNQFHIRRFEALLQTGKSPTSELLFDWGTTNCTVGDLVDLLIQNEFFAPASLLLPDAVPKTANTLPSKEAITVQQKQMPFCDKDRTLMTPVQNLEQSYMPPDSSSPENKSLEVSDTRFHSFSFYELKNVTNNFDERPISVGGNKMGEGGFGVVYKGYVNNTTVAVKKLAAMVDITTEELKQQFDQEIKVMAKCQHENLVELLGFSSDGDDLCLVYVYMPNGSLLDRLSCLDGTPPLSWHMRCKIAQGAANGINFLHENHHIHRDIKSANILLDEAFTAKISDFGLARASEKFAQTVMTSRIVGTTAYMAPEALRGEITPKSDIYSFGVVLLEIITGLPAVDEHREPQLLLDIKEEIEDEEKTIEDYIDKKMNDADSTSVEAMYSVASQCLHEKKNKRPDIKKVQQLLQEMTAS

Turning to `COc1cc(Nc2cc(-c3ccc4cc(C#N)cnn34)ncc2C(=O)NC[C@@H](F)C(C)(C)O)ccc1N1CCOCC1` [Example 685, (R)-6-(3-cyanopyrrolo[1,2-b]pyridazin-7-yl)-N-(2-fluoro-3-hydroxy-3-methylbutyl)-4-((3-methoxy-4-morpholino-phenyl)amino)nicotinamide], in the assay on TNFα, the EC50 was determined as 398 nM. On IRAK4 enzyme, this compound showed an IC50 of 10 nM.

Take `C[C@@H]1CN(c2ncc(Nc3cc(-c4ccc5cc(C#N)cnn45)ncc3C(=O)NC[C@@H](F)C(C)(C)O)cn2)C[C@H](C)O1` [Example 686, 6-(3-cyanopyrrolo[1,2-b]pyridazin-7-yl)-4-((2-((2S,6R)-2,6-dimethyl-morpholino)pyrimidin-5-yl)amino)-N-((R)-2-fluoro-3-hydroxy-3-methylbutyl) nicotinamide]: the EC50 in the assay on TNFα was determined as 20 nM. The same compound displayed an IC50 against IRAK4 enzyme below 1 nM.

`CC(C)(O)[C@H](F)CNC(=O)c1cnc(-c2ccc3cc(C#N)cnn23)cc1Nc1ccc(F)cn1` [Example 687, (R)-6-(3-cyanopyrrolo[1,2-b]pyridazin-7-yl)-N-(2-fluoro-3-hydroxy-3-methylbutyl)-4-((5-fluoro-pyridin-2-yl)amino) nicotinamide]: the half-maximal effective concentration (EC50) with TNFα was found to be 42 nM. The same compound registered an IC50 against IRAK4 enzyme below 1 nM.

Regarding `CC(C)(O)[C@H](F)CNC(=O)c1cnc(-c2ccc3cc(C#N)cnn23)cc1Nc1ccc(N2CCS(=O)(=O)CC2)cc1` [Example 688, (R)-6-(3-cyanopyrrolo[1,2-b]pyridazin-7-yl)-4-((4-(1,1-dioxidothiomorpholino)phenyl)amino)-N-(2-fluoro-3-hydroxy-3-methylbutyl) nicotinamide], the EC50 in the assay on TNFα came out at 24 nM. At IRAK4 enzyme, the IC50 was below 1 nM.

Take `CC(C)(O)[C@H](F)CNC(=O)c1cnc(-c2ccc3cc(C#N)cnn23)cc1Nc1cnc(N2CC3(CCOCC3)C2)nc1` [Example 689, (R)-4-((2-(7-oxa-2-azaspiro[3.5]nonan-2-yl)pyrimidin-5-yl)amino)-6-(3-cyanopyrrolo[1,2-b]pyridazin-7-yl)-N-(2-fluoro-3-hydroxy-3-methylbutyl)nicotinamide]: the half-maximal effective concentration (EC50) in the assay with TNFα is 180 nM. In addition, the IC50 at IRAK4 enzyme was found to be 1 nM.

With `CC(C)(O)[C@H](F)CNC(=O)c1cnc(-c2ccc3cc(C#N)cnn23)cc1N[C@H]1C[C@H](CN)C1` [Example 692, 4-(((1r,3R)-3-(amino-methyl)cyclobutyl)amino)-6-(3-cyanopyrrolo[1,2-b]pyridazin-7-yl)-N-((R)-2-fluoro-3-hydroxy-3-methylbutyl)nicotinamide], the EC50 in the assay with TNFα stood at 315 nM. In addition, it took 1 nM to reach half-maximal inhibition against IRAK4 enzyme (IC50).

For the compound `CC(C)(O)[C@H](F)CNC(=O)c1cnc(-c2ccc3cc(C#N)cnn23)cc1-c1ccc2cc(C#N)cnn12` [Example 693, (R)-4,6-bis(3-cyano-pyrrolo[1,2-b]pyridazin-7-yl)-N-(2-fluoro-3-hydroxy-3-methylbutyl)nicotinamide], the EC50 in the assay on TNFα is 821 nM. For the same compound, on IRAK4 enzyme, 35 nM corresponded to half-maximal inhibition (IC50).

In the case of `Cc1nnc(NC[C@H]2C[C@H](Nc3cc(-c4ccc5cc(C#N)cnn45)ncc3C(=O)NC[C@@H](F)C(C)(C)O)C2)o1` [Example 694, 6-(3-cyanopyrrolo[1,2-b]pyridazin-7-yl)-N—((R)-2-fluoro-3-hydroxy-3-methylbutyl)-4-(((1r,3R)-3-(((5-methyl-1,3,4-oxadiazol-2-yl)amino)methyl)cyclobutyl)amino)nicotinamide], the EC50 in the assay on TNFα was found to be 102 nM. Further, the IC50 against IRAK4 enzyme was below 1 nM.

`CC(C)(O)[C@H](F)CNC(=O)c1cnc(-c2ccc3cc(C#N)cnn23)cc1N[C@H]1C[C@H](CNC(=O)C2CC2(F)F)C1` (stereo partly drawn) [Example 695, 6-(3-cyanopyrrolo[1,2-b]pyridazin-7-yl)-4-(((1R,3R)-3-(((R)-2,2-difluorocyclopropane-1-carboxamido)methyl)cyclobutyl)amino)-N-((R)-2-fluoro-3-hydroxy-3-methylbutyl)nicotinamide]: in the assay with TNFα, the EC50 is 15 nM. Besides, the IC50 at IRAK4 enzyme is below 1 nM.

As to `CC(C)(O)[C@H](F)CNC(=O)c1cnc(-c2ccc3cc(C#N)cnn23)cc1N[C@H]1C[C@H](CNc2nnc(C3CC3)o2)C1` [Example 696, 6-(3-cyanopyrrolo[1,2-b]pyridazin-7-yl)-4-(((1r,3R)-3-(((5-cyclopropyl-1,3,4-oxadiazol-2-yl)amino)methyl)cyclobutyl)amino)-N-((R)-2-fluoro-3-hydroxy-3-methylbutyl)nicotinamide], the half-maximal effective concentration (EC50) in the assay with TNFα was 103 nM. The IC50 against IRAK4 enzyme was below 1 nM.

As to `COCc1nnc(NC[C@H]2C[C@H](Nc3cc(-c4ccc5cc(C#N)cnn45)ncc3C(=O)NC[C@@H](F)C(C)(C)O)C2)o1` [Example 697, 6-(3-cyanopyrrolo[1,2-b]pyridazin-7-yl)-N-((R)-2-fluoro-3-hydroxy-3-methylbutyl)-4-(((1r,3R)-3-(((5-(methoxymethyl)-1,3,4-oxadiazol-2-yl)amino)methyl)cyclobutyl)amino) nicotinamide], in the assay with TNFα, the EC50 worked out at 171 nM. This compound displayed an IC50 on IRAK4 enzyme of 1 nM.

As for `COC(=O)NC[C@H]1C[C@@H](Nc2cc(-c3ccc4cc(C#N)cnn34)ncc2C(=O)NC[C@@H](F)C(C)(C)O)C1` [Example 698, methyl (((1S,3s)-3-((2-(3-cyanopyrrolo[1,2-b]pyridazin-7-yl)-5-(((R)-2-fluoro-3-hydroxy-3-methylbutyl)carbamoyl)pyridin-4-yl)amino)cyclo-butyl)methyl)carbamate], the EC50 in the assay on TNFα came to 201 nM. Moreover, on IRAK4 enzyme, the IC50 was 3 nM.

For the compound `CC(C)(O)[C@H](F)CNC(=O)c1cnc(-c2ccc3cc(C#N)cnn23)cc1N[C@H]1C[C@H](CNC(=O)[C@@H]2CC2(F)F)C1` [Example 699, 6-(3-cyanopyrrolo[1,2-b]pyridazin-7-yl)-4-(((1S,3R)-3-(((S)-2,2-difluorocyclopropane-1-carboxamido)methyl)cyclo-butyl)amino)-N-((R)-2-fluoro-3-hydroxy-3-methylbutyl)nicotinamide], the EC50 in the assay with TNFα was found to be 36 nM. Moreover, the IC50 at IRAK4 enzyme was below 1 nM.

In the case of `CC(C)(O)[C@H](F)CNC(=O)c1cnc(-c2ccc3cc(C#N)cnn23)cc1N[C@H]1C[C@H](CNCC(F)(F)F)C1` [Example 700, 6-(3-cyanopyrrolo[1,2-b]pyridazin-7-yl)-N—((R)-2-fluoro-3-hydroxy-3-methylbutyl)-4-(((1r,3R)-3-(((2,2,2-trifluoroethyl)amino)methyl)cyclobutyl)amino)nicotinamide], the EC50 with TNFα was 151 nM. Further, 2 nM corresponded to half-maximal inhibition at IRAK4 enzyme (IC50).

As to `CC(C)(O)[C@H](F)CNC(=O)c1cnc(-c2ccc3cc(C#N)cnn23)cc1N[C@H]1C[C@H](CN2CCOCC2)C1` [Example 701, 6-(3-cyanopyrrolo[1,2-b]pyridazin-7-yl)-N-((R)-2-fluoro-3-hydroxy-3-methylbutyl)-4-(((1r,3R)-3-(morpholino-methyl)cyclobutyl)amino)nicotinamide], the EC50 in the assay with TNFα is 191 nM. The compound further gave an IC50 against IRAK4 enzyme of 4 nM.

As to `CC(C)(O)[C@H](F)CNC(=O)c1cnc(-c2ccc3cc(C#N)cnn23)cc1N[C@H]1C[C@H](CNC2COC2)C1` [Example 702, 6-(3-cyanopyrrolo[1,2-b]pyridazin-7-yl)-N—((R)-2-fluoro-3-hydroxy-3-methylbutyl)-4-(((1r,3R)-3-((oxetan-3-ylamino)methyl)cyclobutyl)amino)nicotinamide], the EC50 with TNFα turned out to be 119 nM. At IRAK4 enzyme, this compound displayed an IC50 below 1 nM.

By EC50 is commonly meant the concentration needed to bring the measured effect to its halfway point. The term IC50 denotes the concentration needed to halve the response being measured.
